# Assay results taken from patent publication EP0467099A2, “Substituted acrylophenons” (BAYER AG, priority 1990, dated 1992).
# What was measured:
# Testpflanzen [1] = test: Post-emergence test (herbicidal damage rating); type: in vivo; settings: plants 5 - 15 cm sprayed, rated after three weeks, result in words only; for Wirksamkeit (Schädigungsgrad der Pflanzen): compared with reference 2-[2-(4,6-Dimethoxy)-pyrimidinylthio]-benzoesäuremethylester (EP 223406/Bsp. 11); for Nutzpflanzenselektivität: crop selectivity compared with reference 2-[2-(4,6-Dimethoxy)-pyrimidinylthio]-benzoesäuremethylester (EP 223406/Bsp. 11)
# Excerpt: Lösungsmittel: 5 Gewichtsteile Aceton
# Emulgator: 1 Gewichtsteil Alkylarylpolyglykolether
# (§1) Zur Herstellung einer zweckmäßigen Wirkstoffzubereitung vermischt man 1 Gewichtsteil Wirkstoff mit der angegebenen Menge Lösungsmittel, gibt die angegebene Menge Emulgator zu und verdünnt das Konzentrat mit Wasser auf die gewünschte Konzentration.
# Mit der Wirkstoffzubereitung spritzt man Testpflanzen, welche eine Höhe von 5 - 15 cm haben, so, daß die jeweils gewünschten Wirkstoffmengen pro Flächeneinheit ausgebracht werden. Die Konzentration der Spritzbrühe wird so gewählt, daß in 1000 I Wasser/ha die jeweils gewünschten Wirkstoffmengen ausgebracht werden. Nach drei Wochen wird der Schädigungsgrad der Pflanzen bonitiert in % Schädigung im Vergleich zur Entwicklung der unbehandelten Kontrolle.
# Es bedeuten: • 0 % = keine Wirkung (wie unbehandelte Kontrolle) • 100 % = totale Vernichtung
# Testpflanzen [2] = test: Pre-emergence test (herbicidal damage rating); type: in vivo; settings: seeds watered 24 h after sowing, rated after three weeks, compared with reference 2-[2-(4,6-Dimethoxy)-pyrimidinylthio]-benzoesäuremethylester (EP 223406/Bsp. 11), result in words only
# Excerpt: Lösungsmittel: 5 Gewichtsteile Aceton Emulgator: 1 Gewichtsteil Alkylarylpolyglykolether
# as §1
# Samen der Testpflanzen werden in normalen Boden ausgesät und nach 24 Stunden mit der Wirkstoffzubereitung begossen. Dabei hält man die Wassermenge pro Flächeneinheit zweckmäßigerweise konstant. Die Wirkstoffkonzentration in der Zubereitung spielt keine Rolle, entscheidend ist nur die Aufwandmenge des Wirkstoffs pro Flächeneinheit. Nach drei Wochen wird der Schädigungsgrad der Pflanzen bonitiert in % Schädigung im Vergleich zur Entwicklung der unbehandelten Kontrolle. Es bedeuten: • 0 % = keine Wirkung (wie unbehandelte Kontrolle) • 100 % = totale Vernichtung
Compound,Wirksamkeit (Schädigungsgrad der Pflanzen) (Testpflanzen [1]),Nutzpflanzenselektivität (Testpflanzen [1]),Wirksamkeit (Schädigungsgrad der Pflanzen) (Testpflanzen [2])
"COc1cc(OC)nc(Oc2ccccc2C(=O)C=CN2CCCCCC2)n1 [Beispiel 1, 3-(1-Hexahydroazepino)-1-{2-[2-(4,6-dimethoxy)-pyrimidinyloxy]-phenyl}-prop-2-en-1-on]",deutliche Überlegenheit,deutliche Überlegenheit,deutliche Überlegenheit
"COc1cc(OC)nc(Oc2ccccc2C(=O)C(C)=CN(C)C)n1 [Beispiel 2, 3-Dimethylamino-2-methyl-1-{2-[2-(4,6-dimethoxy)-pyrimidinyloxy]-phenyl}-prop-2-en-1-on]",deutliche Überlegenheit,deutliche Überlegenheit,–
"COc1cc(OC)nc(Oc2ccccc2C(=O)C=P(c2ccccc2)(c2ccccc2)c2ccccc2)n1 [Beispiel 3, {2-[2-(4,6-Dimethoxy)-pyrimidinyloxy]-benzoyl}-methylentriphenylphosphoran]",deutliche Überlegenheit,deutliche Überlegenheit,–
